Biological target: GDP-bound KRAS protein (aa 1-169), containing both G12D and C118A amino acid substitutions (Homo sapiens, UniProt P01116, C118A/G12D)
Test: KRAS G12D Coupled Nucleotide Exchange Assay;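 also: IC50 obtained by fitting the AlphaScreen signal with a four-parameter logistic curve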
Type: biochemical
Conditions: 2 h compound pre-incubation; SOS-mediated nucleotide exchange, cRAF AlphaScreen readout

Sequence of GDP-bound KRAS protein (aa 1-169), containing both G12D and C118A amino acid substitutions (P01116 1-169 isoform P01116-2 G12D/C118A): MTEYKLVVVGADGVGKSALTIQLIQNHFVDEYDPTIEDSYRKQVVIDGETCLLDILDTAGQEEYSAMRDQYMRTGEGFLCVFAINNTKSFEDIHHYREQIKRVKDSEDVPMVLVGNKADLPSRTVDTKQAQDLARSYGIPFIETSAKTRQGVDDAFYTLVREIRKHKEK

With `CN1CCO[C@H]2CN(c3nc(N4CCNCC4)c4cc(Cl)c(-c5cccc6sc(N)nc56)c(F)c4n3)C[C@@H]21` (relative stereo) [Example 101, 4-(6-chloro-8-fluoro-2-(trans-4-methylhexahydropyrrolo[3,4-b][1,4]oxazin-6(2H)-yl)-4-(piperazin-1-yl)quinazolin-7-yl)benzo[d]thiazol-2-amine] as the compound, how does the “Avg 2 h Coupled Exchange IC50” value read?
The value was 1.53 µM.

How did the “Avg 2 h Coupled Exchange IC50” value turn out when `CN1CCO[C@@H]2CN(c3nc(N4CCNCC4)c4cc(Cl)c(-c5cccc6sc(N)nc56)c(F)c4n3)C[C@@H]21` (relative stereo) [Example 103, 4-(6-chloro-8-fluoro-2-(cis-4-methylhexahydropyrrolo[3,4-b][1,4]oxazin-6(2H)-yl)-4-(piperazin-1-yl)quinazolin-7-yl)benzo[d]thiazol-2-amine] was run?
The value was 1.71 µM.

With `CNC1(C)CN(c2nc(N3CCNCC3)c3cc(Cl)c(-c4cccc5sc(N)nc45)c(F)c3n2)C1` [Example 77, 4-[6-chloro-8-fluoro-2-[3-methyl-3-(methylamino)azetidin-1-yl]-4-piperazin-1-yl-quinazolin-7-yl]-1,3-benzothiazol-2-amine] as the compound, how does the “Avg 2 h Coupled Exchange IC50” value read?
The value was 0.201 µM.

With `Nc1nc2c(-c3c(Cl)cc4c(N5CCNCC5)nc(N5CC(N6CCCCC6)C5)nc4c3F)cccc2s1` [Example 78, 4-[6-chloro-8-fluoro-4-piperazin-1-yl-2-[3-(1-piperidyl)azetidin-1-yl]quinazolin-7-yl]-1,3-benzothiazol-2-amine] as the compound, how does the “Avg 2 h Coupled Exchange IC50” value read?
The value was 0.28 µM.

With `CC1(N)CN(c2nc(N3CCNCC3)c3cc(Cl)c(-c4cccc5sc(N)nc45)c(F)c3n2)C1` [Example 79, 4-[2-(3-amino-3-methyl-azetidin-1-yl)-6-chloro-8-fluoro-4-piperazin-1-yl-quinazolin-7-yl]-1,3-benzothiazol-2-amine] as the compound, how does the “Avg 2 h Coupled Exchange IC50” value read?
The value was 0.359 µM.

How did the “Avg 2 h Coupled Exchange IC50” value turn out when `C[C@@H]1[C@@H](N)CN1c1nc(N2CCNCC2)c2cc(Cl)c(-c3cccc4sc(N)nc34)c(F)c2n1` [Example 80, 4-[2-[(2R,3S)-3-amino-2-methyl-azetidin-1-yl]-6-chloro-8-fluoro-4-piperazin-1-yl-quinazolin-7-yl]-1,3-benzothiazol-2-amine] was run?
The value was 0.377 µM.

For `CCC1(N)CN(c2nc(N3CCNCC3)c3cc(Cl)c(-c4cccc5sc(N)nc45)c(F)c3n2)C1` [Example 81, 4-[2-(3-amino-3-ethyl-azetidin-1-yl)-6-chloro-8-fluoro-4-piperazin-1-yl-quinazolin-7-yl]-1,3-benzothiazol-2-amine], which “Avg 2 h Coupled Exchange IC50” value is on record?
The value was 0.437 µM.

With `CN1CCC[C@H]1COc1nc(N2C3CCC2C(=O)NC3)c2cc(Cl)c(-c3cccc4sc(N)nc34)c(F)c2n1` (stereo partly drawn) [Example 82, 8-(7-(2-aminobenzo[d]thiazol-4-yl)-6-chloro-8-fluoro-2-(((S)-1-methylpyrrolidin-2-yl)methoxy)quinazolin-4-yl)-3,8-diazabicyclo[3.2.1]octan-2-one] as the compound, how does the “Avg 2 h Coupled Exchange IC50” value read?
The value was 0.471 µM.

How did the “Avg 2 h Coupled Exchange IC50” value turn out when `Nc1nc2c(-c3c(Cl)cc4c(N5CCNCC5)nc(N5CC(N6CCC(O)CC6)C5)nc4c3F)cccc2s1` [Example 83, 1-[1-[7-(2-amino-1,3-benzothiazol-4-yl)-6-chloro-8-fluoro-4-piperazin-1-yl-quinazolin-2-yl]azetidin-3-yl]piperidin-4-ol] was run?
Its value is 0.496 µM.

With `Nc1nc2c(-c3c(Cl)cc4c(N5CCNCC5)nc(N5CC6(CCCN6)C5)nc4c3F)cccc2s1` [Example 84, 4-[6-chloro-2-(2,5-diazaspiro[3.4]octan-2-yl)-8-fluoro-4-piperazin-1-yl-quinazolin-7-yl]-1,3-benzothiazol-2-amine] as the compound, how does the “Avg 2 h Coupled Exchange IC50” value read?
Its value is 0.567 µM.

Which “Avg 2 h Coupled Exchange IC50” value does the source give for `Nc1nc2c(-c3c(Cl)cc4c(N5CCNCC5)nc(N5CC(N6CC(O)C6)C5)nc4c3F)cccc2s1` [Example 85, 1-[1-[7-(2-amino-1,3-benzothiazol-4-yl)-6-chloro-8-fluoro-4-piperazin-1-yl-quinazolin-2-yl]azetidin-3-yl]azetidin-3-ol] here?
Its value is 0.633 µM.

For `CC1(O)CN(C2CN(c3nc(N4CCNCC4)c4cc(Cl)c(-c5cccc6sc(N)nc56)c(F)c4n3)C2)C1` [Example 86, 1-[1-[7-(2-amino-1,3-benzothiazol-4-yl)-6-chloro-8-fluoro-4-piperazin-1-yl-quinazolin-2-yl]azetidin-3-yl]-3-methyl-azetidin-3-ol], which “Avg 2 h Coupled Exchange IC50” value is on record?
The value was 0.648 µM.

`Nc1nc2c(-c3c(Cl)cc4c(N5CCNCC5)nc(N5CC(N6C[C@H]7COC[C@@H](C6)N7)C5)nc4c3F)cccc2s1` [Example 87, 4-(2-(3-((1R,5S)-3-oxa-7,9-diazabicyclo[3.3.1]nonan-7-yl)azetidin-1-yl)-6-chloro-8-fluoro-4-(piperazin-1-yl)quinazolin-7-yl)benzo[d]thiazol-2-amine] was tested. Which “Avg 2 h Coupled Exchange IC50” value did it give?
Its value is 0.701 µM.

`COC1CCN(C2CN(c3nc(N4CCNCC4)c4cc(Cl)c(-c5cccc6sc(N)nc56)c(F)c4n3)C2)CC1` [Example 88, 4-[6-chloro-8-fluoro-2-[3-(4-methoxy-1-piperidyl)azetidin-1-yl]-4-piperazin-1-yl-quinazolin-7-yl]-1,3-benzothiazol-2-amine] was tested. Which “Avg 2 h Coupled Exchange IC50” value did it give?
Its value is 0.706 µM.

For `CN(C1CN(c2nc(N3CCNCC3)c3cc(Cl)c(-c4cccc5sc(N)nc45)c(F)c3n2)C1)[C@@H]1CCOC1` [Example 89], which “Avg 2 h Coupled Exchange IC50” value is on record?
Its value is 0.895 µM.

`Nc1nc2c(-c3c(Cl)cc4c(N5CCNCC5)nc(N5CC(N6CC(F)C6)C5)nc4c3F)cccc2s1` [Example 90, 4-[6-chloro-8-fluoro-2-[3-(3-fluoroazetidin-1-yl)azetidin-1-yl]-4-piperazin-1-yl-quinazolin-7-yl]-1,3-benzothiazol-2-amine] was tested. Which “Avg 2 h Coupled Exchange IC50” value did it give?
Its value is 1.01 µM.

How did the “Avg 2 h Coupled Exchange IC50” value turn out when `CNC1CN(c2nc(N3CCNCC3)c3cc(Cl)c(-c4cccc5sc(N)nc45)c(F)c3n2)C1` [Example 91, 4-[6-chloro-8-fluoro-2-[3-(methylamino)azetidin-1-yl]-4-piperazin-1-yl-quinazolin-7-yl]-1,3-benzothiazol-2-amine] was run?
The value was 1.013 µM.

With `Nc1nc2c(-c3c(Cl)cc4c(N5CCNCC5)nc(N5CC(N6CCCC(O)C6)C5)nc4c3F)cccc2s1` (centres unmarked) [Example 92, 1-[1-[7-(2-amino-1,3-benzothiazol-4-yl)-6-chloro-8-fluoro-4-piperazin-1-yl-quinazolin-2-yl]azetidin-3-yl]piperidin-3-ol] as the compound, how does the “Avg 2 h Coupled Exchange IC50” value read?
Its value is 1.02 µM.

Which “Avg 2 h Coupled Exchange IC50” value does the source give for `Nc1nc2c(-c3c(Cl)cc4c(N5CCNCC5)nc(N5C[C@@H]6NCC[C@H]65)nc4c3F)cccc2s1` [Example 93, 4-[6-chloro-2-[(1S,5R)-2,6-diazabicyclo[3.2.0]heptan-6-yl]-8-fluoro-4-piperazin-1-yl-quinazolin-7-yl]-1,3-benzothiazol-2-amine] here?
The value was 1.14 µM.

How did the “Avg 2 h Coupled Exchange IC50” value turn out when `CN(C)C1CCN(c2nc(N3CCNCC3)c3cc(Cl)c(-c4cccc5sc(N)nc45)c(F)c3n2)C1` (centres unmarked) [Example 94, 4-[6-chloro-8-fluoro-4-piperazin-1-yl-2-[3-(dimethylamino)pyrrolidin-1-yl]quinazolin-7-yl]-1,3-benzothiazol-2-amine] was run?
The value was 1.14 µM.

Which “Avg 2 h Coupled Exchange IC50” value does the source give for `CN(C)[C@@H]1CCN(c2nc(N3CCNCC3)c3cc(Cl)c(-c4cccc5sc(N)nc45)c(F)c3n2)C1` [Example 95, 4-[6-chloro-2-[(3R)-3-(dimethylamino)pyrrolidin-1-yl]-8-fluoro-4-piperazin-1-yl-quinazolin-7-yl]-1,3-benzothiazol-2-amine] here?
The value was 1.18 µM.

With `Nc1nc2c(-c3c(Cl)cc4c(N5CCNCC5)nc(N5CC(N)C5)nc4c3F)cccc2s1` [Example 96, 4-[2-(3-aminoazetidin-1-yl)-6-chloro-8-fluoro-4-piperazin-1-yl-quinazolin-7-yl]-1,3-benzothiazol-2-amine] as the compound, how does the “Avg 2 h Coupled Exchange IC50” value read?
Its value is 1.251 µM.

With `CNC1CCN(c2nc(N3CCNCC3)c3cc(Cl)c(-c4cccc5sc(N)nc45)c(F)c3n2)C1` (centres unmarked) [Example 97, 4-[6-chloro-8-fluoro-4-piperazin-1-yl-2-[3-(methylamino)pyrrolidin-1-yl]quinazolin-7-yl]-1,3-benzothiazol-2-amine] as the compound, how does the “Avg 2 h Coupled Exchange IC50” value read?
The value was 1.27 µM.

How did the “Avg 2 h Coupled Exchange IC50” value turn out when `CN1CCC2CN(c3nc(N4CCNCC4)c4cc(Cl)c(-c5cccc6sc(N)nc56)c(F)c4n3)CC21` (centres unmarked) [Example 98, 4-(6-chloro-8-fluoro-2-(1-methylhexahydropyrrolo[3,4-b]pyrrol-5(1H)-yl)-4-(piperazin-1-yl)quinazolin-7-yl)benzo[d]thiazol-2-amine] was run?
Its value is 1.31 µM.

For `CN1CCCC2C1CCN2c1nc(N2CCNCC2)c2cc(Cl)c(-c3cccc4sc(N)nc34)c(F)c2n1` (centres unmarked) [Example 99, 4-(6-chloro-8-fluoro-2-(4-methyloctahydro-1H-pyrrolo[3,2-b]pyridin-1-yl)-4-(piperazin-1-yl)quinazolin-7-yl)benzo[d]thiazol-2-amine], which “Avg 2 h Coupled Exchange IC50” value is on record?
The value was 1.4 µM.

With `CN(C1COC1)C1CN(c2nc(N3CCNCC3)c3cc(Cl)c(-c4cccc5sc(N)nc45)c(F)c3n2)C1` [Example 100, 4-[6-chloro-8-fluoro-2-[3-[methyl(oxetan-3-yl)amino]azetidin-1-yl]-4-piperazin-1-yl-quinazolin-7-yl]-1,3-benzothiazol-2-amine] as the compound, how does the “Avg 2 h Coupled Exchange IC50” value read?
The value was 1.5 µM.

For `Nc1nc2c(-c3c(Cl)cc4c(N5CCNCC5)nc(N5CC6(CCN6)C5)nc4c3F)cccc2s1` [Example 102, 4-[6-chloro-2-(1,6-diazaspiro[3.3]heptan-6-yl)-8-fluoro-4-piperazin-1-yl-quinazolin-7-yl]-1,3-benzothiazol-2-amine], which “Avg 2 h Coupled Exchange IC50” value is on record?
Its value is 1.55 µM.

How did the “Avg 2 h Coupled Exchange IC50” value turn out when `CON(C)C1CN(c2nc(N3CCNCC3)c3cc(Cl)c(-c4cccc5sc(N)nc45)c(F)c3n2)C1` [Example 104, 4-[6-chloro-8-fluoro-2-[3-[methoxy(methyl)amino]azetidin-1-yl]-4-piperazin-1-yl-quinazolin-7-yl]-1,3-benzothiazol-2-amine] was run?
Its value is 1.73 µM.

Same assay, conditions: read-out: Avg 2 h Coupled Exchange IC50; 2 h compound pre-incubation; SOS-mediated nucleotide exchange, cRAF AlphaScreen readout

Which IC50 does the source give for `CN(C)C1(C)CN(c2nc(N3CCNCC3)c3cc(Cl)c(-c4cccc5sc(N)nc45)c(F)c3n2)C1` [Example 76] here?
The IC50 was 0.172 µM.
